Measured values from patent US9029337B2, “Modulation of factor 7 expression” (Isis Pharmaceuticals, Inc., priority 2007, dated 2015).
Strand notation (5' to 3'): a small letter for the sugar, then the base; units joined by * are phosphorothioate-linked, units joined directly phosphodiester-linked; [ ] holds rarer units or linkages, { } end groups; capitals alone tell only the bases. e = 2'-O-(2-methoxyethyl) (MOE); [5mC] = 5-methylcytosine; d = 2'-deoxy (DNA)

Columns and labels:
Assay type in all cases: cell-based
human Factor 7 mRNA [1] = assay: Antisense inhibition of human Factor 7 mRNA in HepB3 cells, 50 nM antisense oligonucleotide, lipofectin; conditions: for % Inhibition of human Factor 7 mRNA levels: gapmers targeted to nucleobases 4868 to 4899 of SEQ ID NO: 1, Table 8; for % Inhibition: Table 13 (microwalk), 50 nM, lipofectin, approximately 24 hours
Summary of the method: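 Readout is percent reduction of Factor 7 message compared with untreated cells, after correction for total RNA content quantified by RIBOGREEN®. Cultures were seeded at 4,000 cells per well and treated for about 24 hours before RNA extraction.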

human Factor 7 mRNA [2] = assay: Dose-dependent antisense inhibition of human Factor 7 in HepB3 cells, lipofectin; conditions: HepB3 cells, approx. 16 hours (Table 14)
Summary of the method: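 HepB3 cells (4,000/well) lipofectin-transfected with antisense oligonucleotide at 3.125 or 6.25 up to 100 nM for ~16 h. Factor 7 mRNA measured by real-time RT-PCR with primer probe set RTS 2927, adjusted to RIBOGREEN total RNA; expressed as percent inhibition versus untreated control cells.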

human Factor 7 mRNA [3] = assay: Dose-dependent antisense inhibition of human Factor 7 in HepB3 cells, electroporation
Experimental: (§1) The gapmers were also transfected via electroporation and their dose-dependent inhibition of human Factor 7 mRNA was measured. Cells were plated at a density of 20,000 cells per well and transfected via electroporation with 3.125 μM, 6.25 μM, 12.5 μM, 25 μM, 50 μM, and 100 μM concentrations of antisense oligonucleotide, as specified in Table 15. After a treatment period of approximately 16 hours, RNA was isolated from the cells and Factor 7 mRNA levels were measured by quantitative real-time PCR. Human Factor 7 primer probe set RTS 2927 was used to measure mRNA levels. Factor 7 mRNA levels were adjusted according to total RNA content, as measured by RIBOGREEN®. Results are presented as percent inhibition of Factor 7, relative to untreated control cells.
as §1, with “Cells were” for “The gapmers were also transfected via electroporation and their dose-dependent inhibition of human Factor 7 mRNA was measured. Cells were”, “in […]. After a” for “in Table 15. After a”, “cells and human Factor 7” for “cells and Factor 7”

[4] = 3.125 μM, approx. 16 hours (Table 15, Example 7)
[5] = 6.25 μM, approx. 16 hours (Table 15, Example 7)
[6] = 12.5 μM, approx. 16 hours (Table 15, Example 7)
[7] = 25 μM, approx. 16 hours (Table 15, Example 7)
[8] = 50 μM, approx. 16 hours (Table 15, Example 7)
[9] = 100 μM, approx. 16 hours (Table 15, Example 7)
[10] = 3.125 μM, approx. 16 hours (Table 16, Example 8 confirmation)
[11] = 6.25 μM, approx. 16 hours (Table 16, Example 8 confirmation)
[12] = 12.5 μM, approx. 16 hours (Table 16, Example 8 confirmation)
[13] = 25 μM, approx. 16 hours (Table 16, Example 8 confirmation)
[14] = 50 μM, approx. 16 hours (Table 16, Example 8 confirmation)
[15] = 100 μM, approx. 16 hours (Table 16, Example 8 confirmation)

Substance | % Inhibition of human Factor 7 mRNA levels (human Factor 7 mRNA [1]) | percent inhibition of Factor 7 mRNA, relative to untreated control cells (human Factor 7 mRNA [2]; 3.125 nM) | percent inhibition of Factor 7 mRNA, relative to untreated control cells (human Factor 7 mRNA [2]; 12.5 nM) | percent inhibition of Factor 7 mRNA, relative to untreated control cells (human Factor 7 mRNA [2]; 25 nM) | percent inhibition of Factor 7 mRNA, relative to untreated control cells (human Factor 7 mRNA [2]; 50 nM) | percent inhibition of Factor 7 mRNA, relative to untreated control cells (human Factor 7 mRNA [2]; 100 nM) | percent inhibition of Factor 7 mRNA, relative to untreated control cells (human Factor 7 mRNA [2]) | percent inhibition of Factor 7 mRNA, relative to untreated control cells (human Factor 7 mRNA [3]; [4]) | percent inhibition of Factor 7 mRNA, relative to untreated control cells (human Factor 7 mRNA [3]; [5]) | percent inhibition of Factor 7 mRNA, relative to untreated control cells (human Factor 7 mRNA [3]; [6]) | percent inhibition of Factor 7 mRNA, relative to untreated control cells (human Factor 7 mRNA [3]; [7]) | percent inhibition of Factor 7 mRNA, relative to untreated control cells (human Factor 7 mRNA [3]; [8]) | percent inhibition of Factor 7 mRNA, relative to untreated control cells (human Factor 7 mRNA [3]; [9]) | percent inhibition of Factor 7 mRNA, relative to untreated control cells (human Factor 7 mRNA [3]; [10]) | percent inhibition of Factor 7 mRNA, relative to untreated control cells (human Factor 7 mRNA [3]; [11]) | percent inhibition of Factor 7 mRNA, relative to untreated control cells (human Factor 7 mRNA [3]; [12]) | percent inhibition of Factor 7 mRNA, relative to untreated control cells (human Factor 7 mRNA [3]; [13]) | percent inhibition of Factor 7 mRNA, relative to untreated control cells (human Factor 7 mRNA [3]; [14]) | percent inhibition of Factor 7 mRNA, relative to untreated control cells (human Factor 7 mRNA [3]; [15]) | further results
422295 (antisense e[5mC]*eG*dA*dG*dT*dT*d[5mC]*dT*dG*d[5mC]*dA*dG*dG*dA*dG*e[5mC]*eG*eG*e[5mC]*e[5mC]) [compound 422295] | 74% | 17% | 44% | 64% | 80% | 85% | 22% | 10% | 8% | 37% | 58% | 68% | 80% |  |  |  |  |  |  | 
422150 (antisense eG*e[5mC]*eA*dT*dG*dG*dT*dG*dA*dT*dG*d[5mC]*dT*dT*d[5mC]*dT*dG*eA*eA*eT) [compound 422150] |  | 9% | 38% | 59% | 79% | 87% | 23% | 17% | 20% | 40% | 54% | 68% | 83% | 0% | 31% | 53% | 67% | 77% | 86% | % Inhibition (human Factor 7 mRNA [1]): 74%
422183 (antisense eG*e[5mC]*eG*d[5mC]*d[5mC]*dA*d[5mC]*d[5mC]*d[5mC]*dG*d[5mC]*d[5mC]*dG*dG*d[5mC]*dT*d[5mC]*eT*eG*e[5mC]) [compound 422183] |  | 28% | 56% | 78% | 84% | 88% | 37% | 16% | 28% | 37% | 44% | 59% | 71% | 2% | 3% | 24% | 50% | 64% | 71% | % Inhibition (human Factor 7 mRNA levels) (human Factor 7 mRNA [1]; oligonucleotides targeted to nucleobases 13760 to 13789 of SEQ ID NO: 1 (Table 10)): 79%
422140 (antisense eG*eT*eT*e[5mC]*eT*dG*d[5mC]*dA*dG*dG*dA*dG*d[5mC]*dG*dG*e[5mC]*e[5mC]*eT*eA*eA) [compound 422140] | 74% | 18% | 49% | 64% | 74% | 74% | 35% | 29% | 34% | 51% | 64% | 69% | 77% |  |  |  |  |  |  | 
422086 (antisense eT*eG*e[5mC]*eA*eT*dG*dG*dT*dG*dA*dT*dG*d[5mC]*dT*dT*e[5mC]*eT*eG*eA*eA) [compound 422086] |  | 8% | 46% | 65% | 83% | 90% | 26% | 20% | 34% | 44% | 63% | 75% | 84% | 25% | 48% | 74% | 82% | 86% | 90% | % Inhibition (human Factor 7 mRNA [1]): 81%
422217 (antisense eG*eA*eG*dT*dT*d[5mC]*dT*dG*d[5mC]*dA*dG*dG*dA*dG*d[5mC]*dG*dG*e[5mC]*e[5mC]*eT) [compound 422217] | 75% | 8% | 45% | 63% | 79% | 83% | 18% | 15% | 19% | 29% | 55% | 61% | 83% |  |  |  |  |  |  | 
422096 (antisense eA*eG*eA*e[5mC]*eA*dA*dT*dG*dG*dT*d[5mC]*dA*dG*dG*dG*e[5mC]*eT*eG*eG*eT) [compound 422096] |  | 17% | 43% | 60% | 68% | 82% | 23% | 26% | 30% | 46% | 50% | 62% | 85% |  |  |  |  |  |  | % Inhibition (human Factor 7 mRNA levels) (human Factor 7 mRNA [1]; oligonucleotides targeted to nucleobases 11830 to 11869 of SEQ ID NO: 1 (Table 9)): 76%
